Data published in ChEMBL document CHEMBL3045547, “Synthesis, characterization and antimicrobial screening of hybrid molecules containing benzimidazole-pyrazole and pyridine nucleus” (2012).
Converted amounts (≈) assume the structure as drawn.

Tests used:
Type in all cases: functional
Aspergillus niger = experiment: Antimicrobial activity against Aspergillus niger MTCC 282 serial after 72 hr by broth dilution method; conditions: MTCC 282, 72 h
Aspergillus clavatus = experiment: Antimicrobial activity against Aspergillus clavatus MTCC 1323 after 72 hr by serial broth dilution method; conditions: MTCC 1323, 72 h
Escherichia coli = experiment: Antimicrobial activity against Escherichia coli MTCC 443 after 24 to 48 hr by serial broth dilution method
Pseudomonas aeruginosa = experiment: Antimicrobial activity against Pseudomonas aeruginosa MTCC 1688 after 24 to 48 hr by serial broth dilution method
Staphylococcus aureus = experiment: Antimicrobial activity against Staphylococcus aureus MTCC 96 after 24 to 48 hr by serial broth dilution method
Streptococcus pyogenes = experiment: Antimicrobial activity against Streptococcus pyogenes MTCC 442 after 24 to 48 hr by serial broth dilution method
Candida albicans = experiment: Antimicrobial activity against Candida albicans MTCC 227 after 72 hr by serial broth dilution method; conditions: MTCC 227, 72 h

Row | MIC (Aspergillus niger) [µg/mL] | MIC (Aspergillus clavatus) [µg/mL] | MIC (Escherichia coli) [µg/mL] | MIC (Pseudomonas aeruginosa) [µg/mL] | MIC (Staphylococcus aureus) [µg/mL] | MIC (Streptococcus pyogenes) [µg/mL] | MIC (Candida albicans) [µg/mL] | Structure (SMILES)
1 | 200 (≈ 503 µM) | 500 (≈ 1260 µM) | 100 (≈ 252 µM) | 50 (≈ 126 µM) | 125 (≈ 315 µM) | 200 (≈ 503 µM) | 500 (≈ 1260 µM) | COc1ccc(C2CC(c3nc4ccccc4[nH]3)=NN2C(=O)c2ccncc2)cc1 (stereo not given)
2 | 1000 (≈ 2490 µM) | 1000 (≈ 2490 µM) | 500 (≈ 1240 µM) | 500 (≈ 1240 µM) | 250 (≈ 622 µM) | 250 (≈ 622 µM) | 1000 (≈ 2490 µM) | O=C(c1ccncc1)N1N=C(c2nc3ccccc3[nH]2)CC1c1ccc(Cl)cc1 (stereo not given)
3 | 200 (≈ 519 µM) | 500 (≈ 1300 µM) | 500 (≈ 1300 µM) | 100 (≈ 259 µM) | 500 (≈ 1300 µM) | 100 (≈ 259 µM) | 500 (≈ 1300 µM) | O=C(c1ccncc1)N1N=C(c2nc3ccccc3[nH]2)CC1c1ccc(F)cc1 (stereo not given)
4 | 200 (≈ 485 µM) | 100 (≈ 242 µM) | 50 (≈ 121 µM) | 500 (≈ 1210 µM) | 500 (≈ 1210 µM) | 500 (≈ 1210 µM) | 500 (≈ 1210 µM) | O=C(c1ccncc1)N1N=C(c2nc3ccccc3[nH]2)CC1c1ccc([N+](=O)[O-])cc1 (stereo not given)
5 | 25 (≈ 60.9 µM) | 100 (≈ 244 µM) | 250 (≈ 609 µM) | 100 (≈ 244 µM) | 250 (≈ 609 µM) | 250 (≈ 609 µM) | 1000 (≈ 2440 µM) | CN(C)c1ccc(C2CC(c3nc4ccccc4[nH]3)=NN2C(=O)c2ccncc2)cc1 (stereo not given)
6 | 1000 (≈ 2610 µM) | 100 (≈ 261 µM) | 500 (≈ 1300 µM) | 100 (≈ 261 µM) | 125 (≈ 326 µM) | 100 (≈ 261 µM) | 100 (≈ 261 µM) | O=C(c1ccncc1)N1N=C(c2nc3ccccc3[nH]2)CC1c1ccccc1O (stereo not given)
7 | 100 (≈ 261 µM) | 500 (≈ 1300 µM) | 100 (≈ 261 µM) | 25 (≈ 65.2 µM) | 100 (≈ 261 µM) | 50 (≈ 130 µM) | 500 (≈ 1300 µM) | O=C(c1ccncc1)N1N=C(c2nc3ccccc3[nH]2)CC1c1cccc(O)c1 (stereo not given)
8 | 200 (≈ 485 µM) | 100 (≈ 242 µM) | 100 (≈ 242 µM) | 100 (≈ 242 µM) | 500 (≈ 1210 µM) | 500 (≈ 1210 µM) | 500 (≈ 1210 µM) | O=C(c1ccncc1)N1N=C(c2nc3ccccc3[nH]2)CC1c1cccc([N+](=O)[O-])c1 (stereo not given)
9 | 100 (≈ 283 µM) | 100 (≈ 283 µM) | – | – | – | – | 500 (≈ 1420 µM) | COC1=CC(=O)C[C@@H](C)[C@]12Oc1c(Cl)c(OC)cc(OC)c1C2=O [GRISEOFULVIN]

Second part, the molecule before the results:

Row | Structure (SMILES) | MIC (Aspergillus niger) [µg/mL] | MIC (Aspergillus clavatus) [µg/mL] | MIC (Escherichia coli) [µg/mL] | MIC (Pseudomonas aeruginosa) [µg/mL] | MIC (Staphylococcus aureus) [µg/mL] | MIC (Streptococcus pyogenes) [µg/mL] | MIC (Candida albicans) [µg/mL]
10 | Cc1ccc(C2CC(c3nc4ccccc4[nH]3)=NN2C(=O)c2ccncc2)cc1 (stereo not given) | 1000 (≈ 2620 µM) | 1000 (≈ 2620 µM) | 25 (≈ 65.5 µM) | 50 (≈ 131 µM) | 100 (≈ 262 µM) | 250 (≈ 655 µM) | 1000 (≈ 2620 µM)
11 | O=C(c1ccncc1)N1N=C(c2nc3ccccc3[nH]2)CC1c1ccc(Br)cc1 (stereo not given) | 1000 (≈ 2240 µM) | 1000 (≈ 2240 µM) | 250 (≈ 560 µM) | 250 (≈ 560 µM) | 250 (≈ 560 µM) | 250 (≈ 560 µM) | 1000 (≈ 2240 µM)
12 | O=C(c1ccncc1)N1N=C(c2nc3ccccc3[nH]2)CC1c1ccccc1 (stereo not given) | 200 (≈ 544 µM) | 500 (≈ 1360 µM) | 250 (≈ 680 µM) | 500 (≈ 1360 µM) | 250 (≈ 680 µM) | 100 (≈ 272 µM) | 250 (≈ 680 µM)
13 | O=C(c1ccncc1)N1N=C(c2nc3ccccc3[nH]2)CC1c1ccccc1Cl (stereo not given) | 1000 (≈ 2490 µM) | 1000 (≈ 2490 µM) | 100 (≈ 249 µM) | 500 (≈ 1240 µM) | 250 (≈ 622 µM) | 500 (≈ 1240 µM) | 500 (≈ 1240 µM)
14 | COc1cc(C2CC(c3nc4ccccc4[nH]3)=NN2C(=O)c2ccncc2)ccc1O (stereo not given) | 100 (≈ 242 µM) | 200 (≈ 484 µM) | 250 (≈ 605 µM) | 500 (≈ 1210 µM) | 100 (≈ 242 µM) | 100 (≈ 242 µM) | 500 (≈ 1210 µM)
15 | O=C(c1ccncc1)N1N=C(c2nc3ccccc3[nH]2)CC1c1ccc(O)cc1 (stereo not given) | 1000 (≈ 2610 µM) | 1000 (≈ 2610 µM) | 25 (≈ 65.2 µM) | 250 (≈ 652 µM) | 250 (≈ 652 µM) | 250 (≈ 652 µM) | 100 (≈ 261 µM)
16 | CC1(C)S[C@@H]2[C@H](NC(=O)[C@H](N)c3ccccc3)C(=O)N2[C@H]1C(=O)O [AMPICILLIN] | – | – | 100 (≈ 286 µM) | 100 (≈ 286 µM) | 250 (≈ 715 µM) | 100 (≈ 286 µM) | –
